Test results: patent US7074789B2, “Kinase inhibitors” (Amgen Inc., priority 1999, dated 2006)
Like-named read-outs stand apart in the source and are kept apart here.

Assays:
Type in all cases: biochemical
Lck = target: T1, Lck (Homo sapiens, UniProt P06239); assay: Kinase inhibition assay (33P transfer), Lck; conditions: read-out: Lck-1
T1 construct: Kinases are expressed as either kinase domains or full length constructs; made in house
How it was run: (§1)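 Recombinant kinase-domain or full-length fusion proteins (GST or His tag) served as enzyme. Substrate poly(Glu,Tyr) 4:1 or poly(Arg,Ser) 3:1 was bound to the plate; transferred 33P was read by liquid scintillation following acid washing.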

Zap-70 = target: T2, Zap-70 (Homo sapiens, UniProt P43403); assay: Kinase inhibition assay (33P transfer), Zap-70; conditions: read-out: Zap-1
T2 construct: Kinases are expressed as either kinase domains or full length constructs; made in house
T2 sequence (P43403 1-619): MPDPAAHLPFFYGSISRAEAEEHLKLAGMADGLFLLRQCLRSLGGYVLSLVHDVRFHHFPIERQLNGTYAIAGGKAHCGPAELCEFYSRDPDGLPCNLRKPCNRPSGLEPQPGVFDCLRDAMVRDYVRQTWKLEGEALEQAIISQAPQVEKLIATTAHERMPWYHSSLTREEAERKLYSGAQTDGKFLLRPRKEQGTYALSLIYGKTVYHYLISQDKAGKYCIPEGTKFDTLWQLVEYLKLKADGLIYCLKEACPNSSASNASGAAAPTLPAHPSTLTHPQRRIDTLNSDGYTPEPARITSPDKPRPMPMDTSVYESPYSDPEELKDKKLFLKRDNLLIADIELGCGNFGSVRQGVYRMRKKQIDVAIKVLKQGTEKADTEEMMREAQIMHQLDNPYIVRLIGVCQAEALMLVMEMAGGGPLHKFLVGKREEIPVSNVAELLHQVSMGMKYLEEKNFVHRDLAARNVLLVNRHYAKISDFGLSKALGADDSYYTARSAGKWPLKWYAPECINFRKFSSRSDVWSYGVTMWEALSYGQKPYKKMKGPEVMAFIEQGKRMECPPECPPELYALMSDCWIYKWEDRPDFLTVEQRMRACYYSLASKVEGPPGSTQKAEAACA
How it was run: as §1

Itk = target: T3, Itk (Homo sapiens, UniProt Q08881); assay: Kinase inhibition assay (33P transfer), Itk; conditions: read-out: Itk-1
T3 construct: Kinases are expressed as either kinase domains or full length constructs; made in house
T3 sequence (Q08881 1-620): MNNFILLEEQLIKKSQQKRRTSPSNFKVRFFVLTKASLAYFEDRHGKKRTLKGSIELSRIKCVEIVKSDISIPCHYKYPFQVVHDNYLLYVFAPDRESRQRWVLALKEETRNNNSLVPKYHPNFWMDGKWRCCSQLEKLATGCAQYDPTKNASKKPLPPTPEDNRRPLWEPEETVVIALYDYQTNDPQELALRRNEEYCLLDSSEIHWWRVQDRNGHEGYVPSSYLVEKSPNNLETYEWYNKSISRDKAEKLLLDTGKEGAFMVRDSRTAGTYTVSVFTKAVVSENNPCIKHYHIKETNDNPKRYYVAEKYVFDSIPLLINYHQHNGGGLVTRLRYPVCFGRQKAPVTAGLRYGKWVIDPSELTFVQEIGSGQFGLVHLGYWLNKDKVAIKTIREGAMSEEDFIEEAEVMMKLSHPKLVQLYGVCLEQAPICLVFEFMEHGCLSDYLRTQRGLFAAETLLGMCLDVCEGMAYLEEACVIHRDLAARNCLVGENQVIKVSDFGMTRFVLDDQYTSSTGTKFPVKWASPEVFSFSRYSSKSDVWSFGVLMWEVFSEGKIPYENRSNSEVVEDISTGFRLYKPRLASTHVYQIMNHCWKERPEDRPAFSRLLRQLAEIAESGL
How it was run: (§2)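 Read-out: scintillation counts of 33P moved from ATP onto synthetic peptide polymer coated on the well surface, after washing with 0.5% phosphoric acid. Enzymes were tagged (GST or polyHistidine) and came from bacterial or insect-cell expression. IC50 marks 50% loss of incorporated label.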

EGFR = target: T4, EGFR (Homo sapiens, UniProt P00533); assay: Kinase inhibition assay (33P transfer), EGFR; conditions: Table 2, kinase inhibition class; read-out: EGFR-1
T4 construct: Kinases are expressed as either kinase domains or full length constructs; made in house
How it was run: as §2

Kdr = target: T5, Kdr (Homo sapiens, UniProt P35968); assay: Kinase inhibition assay (33P transfer), Kdr
T5 construct: Kinases are expressed as either kinase domains or full length constructs; made in house
T5 sequence (P35968 20-1356, species assumed): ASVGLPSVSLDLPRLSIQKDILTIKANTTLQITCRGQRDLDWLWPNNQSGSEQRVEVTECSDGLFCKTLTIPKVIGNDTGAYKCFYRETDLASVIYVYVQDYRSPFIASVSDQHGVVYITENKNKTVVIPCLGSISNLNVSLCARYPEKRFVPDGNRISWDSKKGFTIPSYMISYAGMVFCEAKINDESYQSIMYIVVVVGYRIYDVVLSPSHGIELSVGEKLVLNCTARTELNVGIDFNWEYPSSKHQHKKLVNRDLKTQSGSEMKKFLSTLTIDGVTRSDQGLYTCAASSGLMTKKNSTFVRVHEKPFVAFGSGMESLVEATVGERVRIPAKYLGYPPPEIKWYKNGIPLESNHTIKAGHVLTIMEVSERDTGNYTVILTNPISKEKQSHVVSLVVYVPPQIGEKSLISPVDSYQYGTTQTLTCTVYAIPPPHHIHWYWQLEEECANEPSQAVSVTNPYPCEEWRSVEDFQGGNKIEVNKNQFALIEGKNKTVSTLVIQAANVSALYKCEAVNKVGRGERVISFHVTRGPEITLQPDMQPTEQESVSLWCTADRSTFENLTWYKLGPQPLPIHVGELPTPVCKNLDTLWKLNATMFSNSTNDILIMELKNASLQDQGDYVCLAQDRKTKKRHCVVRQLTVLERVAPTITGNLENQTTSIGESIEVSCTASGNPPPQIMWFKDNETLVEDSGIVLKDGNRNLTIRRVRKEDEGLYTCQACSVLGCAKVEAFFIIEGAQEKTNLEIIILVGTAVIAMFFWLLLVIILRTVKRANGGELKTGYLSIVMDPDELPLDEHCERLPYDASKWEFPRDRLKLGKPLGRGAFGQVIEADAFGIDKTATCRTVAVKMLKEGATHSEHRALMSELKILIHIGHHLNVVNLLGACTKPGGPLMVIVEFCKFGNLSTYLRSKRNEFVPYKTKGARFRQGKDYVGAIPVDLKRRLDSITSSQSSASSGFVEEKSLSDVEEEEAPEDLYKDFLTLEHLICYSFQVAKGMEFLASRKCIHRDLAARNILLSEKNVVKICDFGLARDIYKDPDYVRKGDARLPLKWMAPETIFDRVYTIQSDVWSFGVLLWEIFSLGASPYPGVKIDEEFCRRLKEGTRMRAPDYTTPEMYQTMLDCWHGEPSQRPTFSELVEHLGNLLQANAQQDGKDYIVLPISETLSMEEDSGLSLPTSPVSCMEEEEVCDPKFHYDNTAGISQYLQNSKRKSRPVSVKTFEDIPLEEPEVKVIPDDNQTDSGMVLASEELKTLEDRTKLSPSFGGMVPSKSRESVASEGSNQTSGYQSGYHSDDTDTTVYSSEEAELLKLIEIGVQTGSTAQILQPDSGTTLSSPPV
How it was run: as §1

Tek = target: T6, Tek (Homo sapiens, UniProt Q02763); assay: Kinase inhibition assay (33P transfer), Tek; conditions: read-out: Tek-1
T6 construct: Kinases are expressed as either kinase domains or full length constructs; made in house
T6 sequence (Q02763 23-1124, species assumed): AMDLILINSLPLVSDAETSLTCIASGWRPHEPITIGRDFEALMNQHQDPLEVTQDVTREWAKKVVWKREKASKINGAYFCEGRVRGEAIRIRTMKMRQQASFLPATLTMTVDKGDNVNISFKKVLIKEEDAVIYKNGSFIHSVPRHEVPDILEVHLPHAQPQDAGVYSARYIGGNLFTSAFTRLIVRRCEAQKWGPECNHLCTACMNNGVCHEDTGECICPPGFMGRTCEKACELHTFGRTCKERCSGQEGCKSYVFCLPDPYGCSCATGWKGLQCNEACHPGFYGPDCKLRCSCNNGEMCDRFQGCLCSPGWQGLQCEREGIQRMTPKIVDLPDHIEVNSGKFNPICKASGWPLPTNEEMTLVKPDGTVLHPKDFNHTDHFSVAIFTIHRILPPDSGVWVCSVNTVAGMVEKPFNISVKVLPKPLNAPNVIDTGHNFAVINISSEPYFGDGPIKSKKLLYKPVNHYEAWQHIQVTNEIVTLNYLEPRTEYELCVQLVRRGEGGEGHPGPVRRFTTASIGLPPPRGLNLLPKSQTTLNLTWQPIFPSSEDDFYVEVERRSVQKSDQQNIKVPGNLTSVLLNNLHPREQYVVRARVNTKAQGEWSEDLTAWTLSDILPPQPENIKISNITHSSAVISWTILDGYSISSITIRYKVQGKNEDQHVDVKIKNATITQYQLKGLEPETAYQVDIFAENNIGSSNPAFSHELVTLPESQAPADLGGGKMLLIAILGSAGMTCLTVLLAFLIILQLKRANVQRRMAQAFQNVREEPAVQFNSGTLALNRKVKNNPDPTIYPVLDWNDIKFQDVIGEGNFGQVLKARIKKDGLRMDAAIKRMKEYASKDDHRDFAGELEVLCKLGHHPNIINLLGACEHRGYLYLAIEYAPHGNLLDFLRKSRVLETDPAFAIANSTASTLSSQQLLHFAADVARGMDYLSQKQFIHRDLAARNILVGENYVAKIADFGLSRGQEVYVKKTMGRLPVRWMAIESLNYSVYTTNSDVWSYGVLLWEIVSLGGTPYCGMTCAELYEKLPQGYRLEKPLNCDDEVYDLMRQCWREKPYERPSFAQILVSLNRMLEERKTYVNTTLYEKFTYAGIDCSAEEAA
How it was run: as §2

c-Met = target: T7, c-Met (Homo sapiens, UniProt P08581); assay: Kinase inhibition assay (33P transfer), c-Met; conditions: Table 2, kinase inhibition class; read-out: Met-1
T7 construct: Kinases are expressed as either kinase domains or full length constructs; made in house
How it was run: as §2

AKT = target: T8, AKT (Homo sapiens, UniProt Q9Y243); assay: Kinase inhibition assay (33P transfer), AKT; conditions: Table 2, kinase inhibition class; read-out: AKT3-1
T8 construct: Kinases are expressed as either kinase domains or full length constructs; made in house
T8 sequence (Q9Y243 whole entry, the tested form may be a part): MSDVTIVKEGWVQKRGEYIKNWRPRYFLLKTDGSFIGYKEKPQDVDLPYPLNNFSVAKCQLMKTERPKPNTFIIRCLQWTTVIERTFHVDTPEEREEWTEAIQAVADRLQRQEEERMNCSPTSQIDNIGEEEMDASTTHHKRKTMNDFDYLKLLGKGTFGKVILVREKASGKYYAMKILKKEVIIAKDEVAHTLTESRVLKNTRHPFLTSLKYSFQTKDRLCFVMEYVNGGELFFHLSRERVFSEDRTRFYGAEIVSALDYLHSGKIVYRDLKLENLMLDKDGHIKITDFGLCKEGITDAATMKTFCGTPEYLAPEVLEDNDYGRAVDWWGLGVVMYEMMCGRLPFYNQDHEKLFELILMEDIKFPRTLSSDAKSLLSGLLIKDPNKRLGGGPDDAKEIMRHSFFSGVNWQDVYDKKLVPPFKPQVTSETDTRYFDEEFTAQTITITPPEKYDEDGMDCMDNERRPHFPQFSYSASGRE
How it was run: as §1

IGFR-1 [1] = target: T9, IGFR-1 (Homo sapiens, UniProt P08069); assay: Kinase inhibition assay, IGFR-1 (Table 2); conditions: Table 2, kinase inhibition class
T9 construct: Kinases are expressed as either kinase domains or full length constructs; made in house

PDGFRB = target: T10, PDGFRB (Homo sapiens, UniProt P09619); assay: Kinase inhibition assay (33P transfer), PDGFRB; conditions: read-out: PDGFRB-1
T10 construct: Kinases are expressed as either kinase domains or full length constructs; made in house

ErbB2 = target: T11, ErbB2 (Homo sapiens, UniProt P04626); assay: Kinase inhibition assay (33P transfer), ErbB2; conditions: read-out: ErbB2-2
T11 construct: Kinases are expressed as either kinase domains or full length constructs; made in house
T11 sequence (P04626 23-1255, species assumed): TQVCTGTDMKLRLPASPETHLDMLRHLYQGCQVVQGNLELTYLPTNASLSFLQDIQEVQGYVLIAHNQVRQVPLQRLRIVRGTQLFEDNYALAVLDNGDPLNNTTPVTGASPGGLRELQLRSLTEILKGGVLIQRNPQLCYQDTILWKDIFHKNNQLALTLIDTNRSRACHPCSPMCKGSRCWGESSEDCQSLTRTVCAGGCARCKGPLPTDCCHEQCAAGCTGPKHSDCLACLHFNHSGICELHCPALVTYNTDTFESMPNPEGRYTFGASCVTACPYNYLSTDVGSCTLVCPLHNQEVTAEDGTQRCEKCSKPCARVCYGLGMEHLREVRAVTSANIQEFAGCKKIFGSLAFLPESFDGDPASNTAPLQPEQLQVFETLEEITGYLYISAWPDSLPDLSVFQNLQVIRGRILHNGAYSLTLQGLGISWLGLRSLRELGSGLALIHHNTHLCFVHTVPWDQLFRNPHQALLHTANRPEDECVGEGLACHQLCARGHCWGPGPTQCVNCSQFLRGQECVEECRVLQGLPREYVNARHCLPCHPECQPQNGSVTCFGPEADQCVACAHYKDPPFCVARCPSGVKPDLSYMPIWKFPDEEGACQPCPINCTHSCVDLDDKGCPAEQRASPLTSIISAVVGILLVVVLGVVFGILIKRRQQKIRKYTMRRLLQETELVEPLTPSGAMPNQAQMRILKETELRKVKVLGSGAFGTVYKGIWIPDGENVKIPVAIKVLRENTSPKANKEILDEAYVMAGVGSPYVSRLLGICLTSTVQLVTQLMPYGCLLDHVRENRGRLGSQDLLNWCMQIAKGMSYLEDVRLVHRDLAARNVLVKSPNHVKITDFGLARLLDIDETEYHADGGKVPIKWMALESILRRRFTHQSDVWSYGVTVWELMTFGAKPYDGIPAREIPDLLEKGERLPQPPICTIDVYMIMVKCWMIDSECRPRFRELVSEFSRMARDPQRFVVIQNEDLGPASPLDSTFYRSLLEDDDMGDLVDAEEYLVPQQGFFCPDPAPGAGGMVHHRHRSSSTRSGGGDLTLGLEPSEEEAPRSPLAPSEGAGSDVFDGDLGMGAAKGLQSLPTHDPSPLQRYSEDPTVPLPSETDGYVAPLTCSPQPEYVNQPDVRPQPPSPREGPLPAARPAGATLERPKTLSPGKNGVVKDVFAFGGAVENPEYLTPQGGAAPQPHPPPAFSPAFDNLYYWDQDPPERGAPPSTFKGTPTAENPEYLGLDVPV
How it was run: as §2

IGFR-1 [2] = target: T9, IGFR-1; assay: Kinase inhibition assay (33P transfer), IGFR-1; conditions: Table 2, kinase inhibition class

T1 sequence (P06239 whole entry, species assumed, the tested form may be a part): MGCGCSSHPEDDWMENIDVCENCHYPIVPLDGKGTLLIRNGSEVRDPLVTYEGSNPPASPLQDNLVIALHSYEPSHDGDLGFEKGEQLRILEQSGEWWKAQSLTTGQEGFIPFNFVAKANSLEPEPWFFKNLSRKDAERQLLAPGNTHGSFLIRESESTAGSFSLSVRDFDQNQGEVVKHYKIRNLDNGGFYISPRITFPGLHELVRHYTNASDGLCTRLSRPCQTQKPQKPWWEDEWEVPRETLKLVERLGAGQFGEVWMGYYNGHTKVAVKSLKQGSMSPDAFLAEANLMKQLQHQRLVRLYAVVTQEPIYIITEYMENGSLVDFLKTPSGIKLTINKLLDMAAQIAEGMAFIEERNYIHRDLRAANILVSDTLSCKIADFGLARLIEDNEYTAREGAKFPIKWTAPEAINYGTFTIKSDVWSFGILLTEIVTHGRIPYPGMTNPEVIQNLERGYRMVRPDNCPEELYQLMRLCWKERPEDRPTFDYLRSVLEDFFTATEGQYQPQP

| IC50 (Lck) [µM] | IC50 (Zap-70) [µM] | IC50 (Itk) [µM] | IC50 (EGFR) [µM] | IC50 (Kdr; read-out: KDR-1) [µM] | IC50 (Tek) [µM] | IC50 (c-Met) [µM] | IC50 (AKT) [µM] | IC50 (IGFR-1 [1]) [µM] | IC50 (PDGFRB) [µM] | IC50 (ErbB2) [µM] | IC50 (Lck; Table 3) [µM] | IC50 (Zap-70; Table 3) [µM] | IC50 (Itk; Table 3) [µM] | IC50 (Kdr; Table 3, read-out: KDR-1) [µM] | IC50 (IGFR-1 [2]) [µM] | SMILES | IC50 (Kdr; KDR-1) [µM] |
| --- | --- | --- | --- | --- | --- | --- | --- | --- | --- | --- | --- | --- | --- | --- | --- | --- | --- |
| 0.892 to 5.35 | > 10 | 7.8 to 10 | > 10 | 0.892 to 5.35 | 5.35 to 7.8 | > 10 | > 10 | < 0.892 | 0.892 to 5.35 | – | – | – | – | – | – | CCN(CC)CCOc1cc(Nc2ncnc(-n3c(N)nc4ccccc43)n2)ccc1OC [Compound 649] | – |
| 0.865 to 5.19 | > 9.73 | > 9.73 | > 9.73 | < 0.865 | 7.57 to 9.73 | 7.57 to 9.73 | > 9.73 | < 0.865 | 0.865 to 5.19 | – | – | – | – | – | – | COc1cc(Nc2ncnc(-n3c(N)nc4ccccc43)n2)ccc1OCCN1CCOCC1 [Compound 650] | – |
| 0.836 to 5.02 | > 9.41 | > 9.41 | 5.02 to 7.32 | 0.836 to 5.02 | – | > 9.41 | > 9.41 | 5.02 to 7.32 | 0.836 to 5.02 | > 9.41 | – | – | – | – | – | COc1cc(Nc2ncnc(Nc3ccc(NC(C)=O)c(C(F)(F)F)c3)n2)cc(OC)c1OC [Compound 617] | – |
| 0.78 to 4.68 | > 8.78 | > 8.78 | 0.78 to 4.68 | 4.68 to 6.83 | – | > 8.78 | > 8.78 | > 8.78 | 0.78 to 4.68 | 0.78 to 4.68 | – | – | – | – | – | COc1cc(Nc2ncnc(Nc3cc(OC)c(OC)c(OC)c3)n2)ccc1OCCN1CCOCC1 [Compound 601] | – |
| > 8.28 | > 8.28 | > 8.28 | 4.42 to 6.44 | 6.44 to 8.28 | – | > 8.28 | > 8.28 | > 8.28 | 4.42 to 6.44 | 0.736 to 4.42 | – | – | – | – | – | COc1ccc(CNc2nc3ccccc3n2-c2ncnc(Nc3cc(OC)c(OC)c(OC)c3)n2)cc1OC [Compound 596] | – |
| > 10.6 | > 10.6 | > 10.6 | > 10.6 | 0.942 to 5.65 | – | > 10.6 | > 10.6 | > 10.6 | > 10.6 | > 10.6 | – | – | – | – | – | COc1cc(Nc2ncnc(NC(=O)NCCc3ccccc3)n2)cc(OC)c1OC [Compound 661] | – |
| 0.78 to 4.68 | > 8.78 | > 8.78 | 6.83 to 8.78 | 4.68 to 6.83 | – | > 8.78 | > 8.78 | > 8.78 | 0.78 to 4.68 | 4.68 to 6.83 | – | – | – | – | – | COc1ccc(Nc2ncnc(Nc3cc(OC)c(OC)c(OC)c3)n2)cc1OCCN1CCOCC1 [Compound 599] | – |
| – | – | – | > 17 | – | > 17 | > 17 | > 17 | – | – | – | 9.08 to 13.2 | > 17 | > 17 | 1.51 to 9.08 | > 17 | Oc1ccc(Nc2ncnc(-c3ccccc3)n2)cc1 [Compound 11] | – |
| – | – | – | > 11.3 | – | 6.01 to 8.76 | > 11.3 | 6.01 to 8.76 | – | – | – | > 11.3 | > 11.3 | > 11.3 | 1 to 6.01 | > 11.3 | COc1ccc(Nc2ncnc(Nc3ccc(OCc4ccccc4)cc3)n2)cc1 [Compound 161] | – |

| SMILES | IC50 (Lck) [µM] | IC50 (Zap-70) [µM] | IC50 (Itk) [µM] | IC50 (EGFR) [µM] | IC50 (Kdr; read-out: KDR-1) [µM] | IC50 (Tek) [µM] | IC50 (c-Met) [µM] | IC50 (AKT) [µM] | IC50 (IGFR-1 [1]) [µM] | IC50 (PDGFRB) [µM] | IC50 (ErbB2) [µM] | IC50 (Lck; Table 3) [µM] | IC50 (Zap-70; Table 3) [µM] | IC50 (Itk; Table 3) [µM] | IC50 (Kdr; Table 3, read-out: KDR-1) [µM] | IC50 (IGFR-1 [2]) [µM] | IC50 (Kdr; KDR-1) [µM] |
| --- | --- | --- | --- | --- | --- | --- | --- | --- | --- | --- | --- | --- | --- | --- | --- | --- | --- |
| Nc1nc2ccccc2n1-c1ncnc(Nc2ccccn2)n1 [Compound 659] | 7.89 to 11.5 | > 14.8 | 1.31 to 7.89 | > 14.8 | – | – | > 14.8 | > 14.8 | 1.31 to 7.89 | > 14.8 | > 14.8 | – | – | – | – | – | 7.89 to 11.5 |
